# Test system: Genes belonging to other category
# Test: DNA chip mRNA expression in yeast, genes belonging to other category (Table 9)
# Assay type: cell-based, Saccharomyces cerevisiae S288C
# Summary of the method: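 Measured as treated-to-untreated fluorescence ratio on a full-genome yeast DNA chip. Cells (S288C, YPD, 25° C.) were exposed in log phase for two hours to one chemical, dosed to curb growth without killing.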
smiles,measurement,setting,value
"[Cl][Hg][Cl] [(3), HgCl2]",The level of expressed mRNA in the presence of chemical substance/The level of expressed mRNA in the absence of chemical substance,yeast gene YKL008C,2.0
same,The level of expressed mRNA in the presence of chemical substance/The level of expressed mRNA in the absence of chemical substance,yeast gene YKL013C,1.4
same,The level of expressed mRNA in the presence of chemical substance/The level of expressed mRNA in the absence of chemical substance,yeast gene YKL039W,2.4
same,The level of expressed mRNA in the presence of chemical substance/The level of expressed mRNA in the absence of chemical substance,yeast gene YKL096W,8.1
same,The level of expressed mRNA in the presence of chemical substance/The level of expressed mRNA in the absence of chemical substance,yeast gene YKL165C,1.1
same,The level of expressed mRNA in the presence of chemical substance/The level of expressed mRNA in the absence of chemical substance,yeast gene YKL193C,1.1
same,The level of expressed mRNA in the presence of chemical substance/The level of expressed mRNA in the absence of chemical substance,yeast gene YLR120C,2.4
same,The level of expressed mRNA in the presence of chemical substance/The level of expressed mRNA in the absence of chemical substance,yeast gene YLR136C,0.6
same,The level of expressed mRNA in the presence of chemical substance/The level of expressed mRNA in the absence of chemical substance,yeast gene YLR178C,8.8
same,The level of expressed mRNA in the presence of chemical substance/The level of expressed mRNA in the absence of chemical substance,yeast gene YLR250W,1.0
same,The level of expressed mRNA in the presence of chemical substance/The level of expressed mRNA in the absence of chemical substance,yeast gene YLR327C,14.4
same,The level of expressed mRNA in the presence of chemical substance/The level of expressed mRNA in the absence of chemical substance,yeast gene YLR356W,4.9
same,The level of expressed mRNA in the presence of chemical substance/The level of expressed mRNA in the absence of chemical substance,yeast gene YLR362W,1.0
same,The level of expressed mRNA in the presence of chemical substance/The level of expressed mRNA in the absence of chemical substance,yeast gene YLR391W,2.9
same,The level of expressed mRNA in the presence of chemical substance/The level of expressed mRNA in the absence of chemical substance,yeast gene YLR429W,0.6
same,The level of expressed mRNA in the presence of chemical substance/The level of expressed mRNA in the absence of chemical substance,yeast gene YMR004W,1.3
same,The level of expressed mRNA in the presence of chemical substance/The level of expressed mRNA in the absence of chemical substance,yeast gene YMR094W,1.3
same,The level of expressed mRNA in the presence of chemical substance/The level of expressed mRNA in the absence of chemical substance,yeast gene YMR104C,2.2
same,The level of expressed mRNA in the presence of chemical substance/The level of expressed mRNA in the absence of chemical substance,yeast gene YMR219W,1.0
same,The level of expressed mRNA in the presence of chemical substance/The level of expressed mRNA in the absence of chemical substance,yeast gene YMR226C,1.4
same,The level of expressed mRNA in the presence of chemical substance/The level of expressed mRNA in the absence of chemical substance,yeast gene YMR275C,1.2
same,The level of expressed mRNA in the presence of chemical substance/The level of expressed mRNA in the absence of chemical substance,yeast gene YMR276W,1.5
same,The level of expressed mRNA in the presence of chemical substance/The level of expressed mRNA in the absence of chemical substance,yeast gene YMR314W,0.9
same,The level of expressed mRNA in the presence of chemical substance/The level of expressed mRNA in the absence of chemical substance,yeast gene YNL006W,1.3
same,The level of expressed mRNA in the presence of chemical substance/The level of expressed mRNA in the absence of chemical substance,yeast gene YNL007C,5.1
same,The level of expressed mRNA in the presence of chemical substance/The level of expressed mRNA in the absence of chemical substance,yeast gene YNL093W,0.4
same,The level of expressed mRNA in the presence of chemical substance/The level of expressed mRNA in the absence of chemical substance,yeast gene YNL333W,1.7
same,The level of expressed mRNA in the presence of chemical substance/The level of expressed mRNA in the absence of chemical substance,yeast gene YNR010W,0.5
same,The level of expressed mRNA in the presence of chemical substance/The level of expressed mRNA in the absence of chemical substance,yeast gene YNR069C,0.7
same,The level of expressed mRNA in the presence of chemical substance/The level of expressed mRNA in the absence of chemical substance,yeast gene YOL013C,1.0
same,The level of expressed mRNA in the presence of chemical substance/The level of expressed mRNA in the absence of chemical substance,yeast gene YOL164W,1.0
same,The level of expressed mRNA in the presence of chemical substance/The level of expressed mRNA in the absence of chemical substance,yeast gene YOR036W,1.4
same,The level of expressed mRNA in the presence of chemical substance/The level of expressed mRNA in the absence of chemical substance,yeast gene YOR117W,1.7
same,The level of expressed mRNA in the presence of chemical substance/The level of expressed mRNA in the absence of chemical substance,yeast gene YOR124C,1.3
same,The level of expressed mRNA in the presence of chemical substance/The level of expressed mRNA in the absence of chemical substance,yeast gene YOR132W,0.8
same,The level of expressed mRNA in the presence of chemical substance/The level of expressed mRNA in the absence of chemical substance,yeast gene YOR157C,1.2
same,The level of expressed mRNA in the presence of chemical substance/The level of expressed mRNA in the absence of chemical substance,yeast gene YOR181W,1.1
same,The level of expressed mRNA in the presence of chemical substance/The level of expressed mRNA in the absence of chemical substance,yeast gene YOR185C,1.9
same,The level of expressed mRNA in the presence of chemical substance/The level of expressed mRNA in the absence of chemical substance,yeast gene YOR198C,1.4
same,The level of expressed mRNA in the presence of chemical substance/The level of expressed mRNA in the absence of chemical substance,yeast gene YOR259C,0.8
same,The level of expressed mRNA in the presence of chemical substance/The level of expressed mRNA in the absence of chemical substance,yeast gene YOR261C,0.6
same,The level of expressed mRNA in the presence of chemical substance/The level of expressed mRNA in the absence of chemical substance,yeast gene YOR288C,1.1
same,The level of expressed mRNA in the presence of chemical substance/The level of expressed mRNA in the absence of chemical substance,yeast gene YOR355W,1.1
same,The level of expressed mRNA in the presence of chemical substance/The level of expressed mRNA in the absence of chemical substance,yeast gene YOR383C,2.6
same,The level of expressed mRNA in the presence of chemical substance/The level of expressed mRNA in the absence of chemical substance,yeast gene YPL089C,0.5
same,The level of expressed mRNA in the presence of chemical substance/The level of expressed mRNA in the absence of chemical substance,yeast gene YPL109C,0.5
same,The level of expressed mRNA in the presence of chemical substance/The level of expressed mRNA in the absence of chemical substance,yeast gene YPL149W,0.6
same,The level of expressed mRNA in the presence of chemical substance/The level of expressed mRNA in the absence of chemical substance,yeast gene YPL154C,4.2
same,The level of expressed mRNA in the presence of chemical substance/The level of expressed mRNA in the absence of chemical substance,yeast gene YPR103W,1.3
same,The level of expressed mRNA in the presence of chemical substance/The level of expressed mRNA in the absence of chemical substance,yeast gene YPR108W,1.3

# Source: patent US8192962B2, “Processes for detecting toxic substances” (Daikin Industries, Ltd., priority 2001, dated 2012)
